Assay results: patent US12129312B2, “Peptide compound, application thereof and composition containing same” (priority 2017, dated 2024)
Numbered stars: 1 amine (or outer) side, 2 acyl side, 3 side chain; on linkers, the order of the positions; unused ones are H or OH. Square brackets hold non-standard residues; d marks the D form. Peptide text beside a SMILES is read from it. * marks the point of attachment. Pro(trans-4-Ph) = O=C(O)[C@@H]1C[C@@H](c2ccccc2)CN1; Phe(4-Me) = Cc1ccc(C[C@H](N)C(=O)O)cc1; Pro(4,4-F2) = O=C(O)[C@@H]1CC(F)(F)CN1; X5 = O=C([C@H]1c2ccccc2CCN1[*:1])[*:2]; 2Nal = N[C@@H](Cc1ccc2ccccc2c1)C(=O)O; Pentanoyl(5-Ph) = O=C(CCCCc1ccccc1)*; dNMeY = CN[C@H](Cc1ccc(O)cc1)C(=O)O; Cyclohexylacetyl = O=C(CC1CCCCC1)*; NMeF = CN[C@@H](Cc1ccccc1)C(=O)O; NMeQ = CN[C@@H](CCC(N)=O)C(=O)O; Tic = O=C(O)[C@@H]1Cc2ccccc2CN1; NMeL = CN[C@@H](CC(C)C)C(=O)O; NHPhenethyl = c1ccc(CCN*)cc1; X12 = O=C(Cc1cc(O)cc(O)c1)*; NMeS = CN[C@@H](CO)C(=O)O; Pip = O=C(O)[C@@H]1CCCCN1; X8 = O=C(c1c(O)cccc1O)*; Hexanoyl = CCCCCC(=O)*; CO = O=C([*:1])[*:2]

What follows are compounds tested against T1, human Chemokine like receptor 1 (Homo sapiens, UniProt Q99788) (assay: Activation of Tango CMKLR1-bla U2OS cells (beta-lactamase FRET reporter)). Conditions: not given.
T1 construct: host or cells: U2OS (Tango CMKLR1-bla U2OS)
T1 sequence (Q99788 1-373): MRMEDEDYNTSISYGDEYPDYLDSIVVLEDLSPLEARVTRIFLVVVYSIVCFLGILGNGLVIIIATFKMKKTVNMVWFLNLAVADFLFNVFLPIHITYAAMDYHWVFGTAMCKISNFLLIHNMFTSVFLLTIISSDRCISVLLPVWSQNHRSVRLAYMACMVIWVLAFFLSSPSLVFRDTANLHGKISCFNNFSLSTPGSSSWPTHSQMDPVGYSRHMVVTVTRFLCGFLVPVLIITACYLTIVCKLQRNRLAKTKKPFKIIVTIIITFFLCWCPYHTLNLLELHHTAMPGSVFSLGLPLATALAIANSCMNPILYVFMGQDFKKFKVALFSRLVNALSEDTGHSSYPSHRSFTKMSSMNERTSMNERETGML
Format: cell-based
Outline: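 Agonist mode in Tango CMKLR1-bla U2OS cells, 10000 cells/well seeded overnight, then 10-point 3-fold compound dilutions from 10 mM DMSO stock applied for 4 h at 37 °C, 5% CO2. Beta-lactamase reporter read with CCF4-AM FRET substrate; peptide (D-Tyr)-Phe-Leu-Pro-(D-Ser)-Gln-Phe-(D-Ala)-Tic-Ser served as positive control.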

SMILES	EC50 [nM]
CC(C)C[C@@H](C(=O)N1CC(F)(F)C[C@H]1C(=O)N[C@H](CO)C(=O)N[C@@H](CCC(N)=O)C(=O)N[C@@H](Cc1ccc2ccccc2c1)C(=O)N[C@H](C)C(=O)N1Cc2ccccc2C[C@H]1C(=O)N(C)[C@@H](CO)C(=O)O)N(C)C(=O)[C@H](Cc1ccccc1)NC(=O)[C@H](N)Cc1ccc(O)cc1 [YW-224, (D-Tyr)-Phe-(NMe-Leu)-Pro(diF)-(D-Ser)-Gln-2Nal-(D-Ala)-Tic-NMeSer] (H-[dY]F[NMeL][Pro(4,4-F2)][dS]Q[2Nal][dA][Tic][NMeS]-OH)	1.3
CC(C)C[C@H](NC(=O)[C@H](Cc1ccccc1)NC(=O)[C@H](N)Cc1ccc(O)cc1)C(=O)N1CCC[C@H]1C(=O)N[C@H](CO)C(=O)N[C@@H](CCC(N)=O)C(=O)N[C@@H](Cc1ccc2ccccc2c1)C(=O)N[C@H](C)C(=O)N1Cc2ccccc2C[C@H]1C(=O)N[C@@H](CO)C(=O)O [YW-118, (D-Tyr)-Phe-Leu-Pro-(D-Ser)-Gln-2Nal-(D-Ala)-Tic-Ser-OH] (H-[dY]FLP[dS]Q[2Nal][dA][Tic]S-OH)	6.9
CC(C)C[C@H](NC(=O)[C@H](Cc1ccccc1)NC(=O)[C@H](N)Cc1ccc(O)cc1)C(=O)N1CCCC[C@H]1C(=O)N[C@H](CO)C(=O)N[C@@H](CCC(N)=O)C(=O)N[C@@H](Cc1ccccc1)C(=O)N[C@H](C)C(=O)N1Cc2ccccc2C[C@H]1C(=O)N[C@@H](CO)C(=O)O [YW-96, (D-Tyr)-Phe-Leu-(S-Pip)-(D-Ser)-Gln-Phe-(D-Ala)-Tic-Ser] (H-[dY]FL[Pip][dS]QF[dA][Tic]S-OH; N-terminus assumed)	39

Same assay, conditions: determination by the method of Effect Embodiment 1; read-out: EC50

SMILES	EC50 [nM]
CC(C)C[C@H](NC(=O)[C@H](Cc1ccccc1)NC(=O)[C@@H](Cc1ccc(O)cc1)NC(=O)Cc1cc(O)cc(O)c1)C(=O)N1CCC[C@H]1C(=O)N[C@H](CO)C(=O)N[C@@H](CCC(N)=O)C(=O)N[C@@H](Cc1ccccc1)C(=O)N[C@H](C)C(=O)N1Cc2ccccc2C[C@H]1C(=O)N[C@@H](CO)C(=O)O [YW-131, 3,5-Dihydroxyphenylacetyl-(D-Tyr)-Phe-Leu-Pro-(D-Ser)-Gln-Phe-(D-Ala)-Tic-Ser] (X12-[dY]FLP[dS]QF[dA][Tic]S-OH)	2.9
CC(C)C[C@H](NC(=O)[C@H](Cc1ccccc1)N(C)C(=O)[C@H](N)Cc1ccc(O)cc1)C(=O)N1CCC[C@H]1C(=O)N[C@H](CO)C(=O)N[C@@H](CCC(N)=O)C(=O)N[C@@H](Cc1ccccc1)C(=O)N[C@H](C)C(=O)N1Cc2ccccc2C[C@H]1C(=O)N[C@@H](CO)C(=O)O [YW-104, (D-Tyr)-(NMe-Phe)-Leu-Pro-(D-Ser)-Gln-Phe-(D-Ala)-Tic-Ser-OH] (H-[dY][NMeF]LP[dS]QF[dA][Tic]S-OH)	80
Cc1ccc(C[C@H](NC(=O)[C@@H](C)NC(=O)[C@H](Cc2ccccc2)NC(=O)[C@H](CCC(N)=O)NC(=O)[C@@H](CO)NC(=O)[C@@H]2CCCN2C(=O)[C@H](CC(C)C)N(C)C(=O)[C@H](Cc2ccccc2)NC(=O)[C@H](N)Cc2ccc(O)cc2)C(=O)N[C@@H](CO)C(=O)O)cc1 [YW-205, (D-Tyr)-Phe-(NMe-Leu)-Pro-(D-Ser)-Gln-Phe-(D-Ala)-Phe(4-Me)-Ser] (H-[dY]F[NMeL]P[dS]QF[dA][Phe(4-Me)]S-OH)	6.2
CC(C)C[C@H](NC(=O)[C@H](Cc1ccccc1)NC(=O)[C@H](N)Cc1ccccc1)C(=O)N1CCC[C@H]1C(=O)N[C@H](CO)C(=O)N[C@@H](CCC(N)=O)C(=O)N[C@@H](Cc1ccccc1)C(=O)N[C@H](C)C(=O)N1Cc2ccccc2C[C@H]1C(=O)N[C@@H](CO)C(=O)O [YW-97, (D-Phe)-Phe-Leu-Pro-(D-Ser)-Gln-Phe-(D-Ala)-Tic-Ser-OH] (H-[dF]FLP[dS]QF[dA][Tic]S-OH)	50
CC(C)C[C@H](NC(=O)[C@H](Cc1ccccc1)NC(=O)[C@H](N)Cc1ccc(O)cc1)C(=O)N1CCC[C@H]1C(=O)N[C@H](CO)C(=O)N(C)[C@@H](CCC(N)=O)C(=O)N[C@@H](Cc1ccccc1)C(=O)N[C@H](C)C(=O)N1Cc2ccccc2C[C@H]1C(=O)N[C@@H](CO)C(=O)O [YW-107, (D-Tyr)-Phe-Leu-Pro-(D-Ser)-(NMe-Gln)-Phe-(D-Ala)-Tic-Ser-OH] (H-[dY]FLP[dS][NMeQ]F[dA][Tic]S-OH)	> 50000
CC(C)C[C@H](NC(=O)[C@H](Cc1ccccc1)NC(=O)[C@H](N)Cc1ccc(O)cc1)C(=O)N1C[C@H](c2ccccc2)C[C@H]1C(=O)N[C@H](CO)C(=O)N[C@@H](CCC(N)=O)C(=O)N[C@@H](Cc1ccccc1)C(=O)N[C@H](C)C(=O)N1Cc2ccccc2C[C@H]1C(=O)N[C@@H](CO)C(=O)O [YW-113, (D-Tyr)-Phe-Leu-Pro(4-Ph)-(D-Ser)-Gln-Phe-(D-Ala)-Tic-Ser-OH] (H-[dY]FL[Pro(trans-4-Ph)][dS]QF[dA][Tic]S-OH)	8.6
CCCCCC(=O)N[C@H](Cc1ccc(O)cc1)C(=O)N[C@@H](Cc1ccccc1)C(=O)N(C)[C@@H](CC(C)C)C(=O)N1CCC[C@H]1C(=O)N[C@H](CO)C(=O)N[C@@H](CCC(N)=O)C(=O)N[C@@H](Cc1ccccc1)C(=O)N[C@H](C)C(=O)N1Cc2ccccc2C[C@H]1C(=O)N[C@@H](CO)C(=O)O [YW-193, Hexanoyl-(D-Tyr)-Phe-(NMe-Leu)-Pro-(D-Ser)-Gln-Phe-(D-Ala)-Tic-Ser] (Hexanoyl-[dY]F[NMeL]P[dS]QF[dA][Tic]S-OH)	1.4
CN[C@H](Cc1ccc(O)cc1)C(=O)N[C@@H](Cc1ccccc1)C(=O)N(C)[C@@H](CC(C)C)C(=O)N1CCC[C@H]1C(=O)N[C@H](CO)C(=O)N[C@@H](CCC(N)=O)C(=O)N[C@@H](Cc1ccc2ccccc2c1)C(=O)N[C@H](C)C(=O)N1Cc2ccccc2C[C@H]1C(=O)N(C)[C@@H](CO)C(=O)O [YW-146, (D-NMe-Tyr)-Phe-(NMe-Leu)-Pro-(D-Ser)-Gln-2Nal-(D-Ala)-Tic-(NMe-Ser)-OH] (H-[dNMeY]F[NMeL]P[dS]Q[2Nal][dA][Tic][NMeS]-OH)	1.4
CN[C@H](Cc1ccc(O)cc1)C(=O)N[C@@H](Cc1ccccc1)C(=O)N[C@@H](CC(C)C)C(=O)N1CCC[C@H]1C(=O)N[C@H](CO)C(=O)N[C@@H](CCC(N)=O)C(=O)N[C@@H](Cc1ccccc1)C(=O)N[C@H](C)C(=O)N1CCc2ccccc2[C@@H]1C(=O)N[C@@H](CO)C(=O)O [YW-154, (D-NMe-Tyr)-Phe-Leu-Pro-(D-Ser)-Gln-Phe-(D-Ala)-D-Ti1c-Ser-OH] (H-[dNMeY]FLP[dS]QF[dA][X5]S-OH)	34
CC(C)C[C@H](NC(=O)[C@H](Cc1ccccc1)NC(=O)[C@H](N)Cc1ccc(O)cc1)C(=O)N1CCC[C@H]1C(=O)N[C@H](CO)C(=O)N[C@@H](CCC(N)=O)C(=O)N[C@@H](Cc1ccccc1)C(=O)N[C@H](C)C(=O)N1Cc2ccccc2C[C@H]1C(=O)N(C)[C@@H](CO)C(=O)O [YW-110, (D-Tyr)-Phe-Leu-Pro-(D-Ser)-Gln-Phe-(D-Ala)-Tic-(NMe-Ser)-OH] (H-[dY]FLP[dS]QF[dA][Tic][NMeS]-OH)	13
CC(C)C[C@@H](C(=O)N1CCC[C@H]1C(=O)N[C@H](CO)C(=O)N[C@@H](CCC(N)=O)C(=O)N[C@@H](Cc1ccccc1)C(=O)N[C@H](C)C(=O)N1Cc2ccccc2C[C@H]1C(=O)N[C@@H](CO)C(=O)O)N(C)C(=O)[C@H](Cc1ccccc1)N(C)C(=O)[C@H](N)Cc1ccc(O)cc1 [YW-105, (D-Tyr)-(NMe-Phe)-(NMe-Leu)-Pro-(D-Ser)-Gln-Phe-(D-Ala)-Tic-Ser-OH] (H-[dY][NMeF][NMeL]P[dS]QF[dA][Tic]S-OH; N-terminus assumed)	10.6
CC(C)C[C@H](NC(=O)[C@H](Cc1ccccc1)NC(=O)[C@@H](Cc1ccc(O)cc1)NC(=O)c1c(O)cccc1O)C(=O)N1CCC[C@H]1C(=O)N[C@H](CO)C(=O)N[C@@H](CCC(N)=O)C(=O)N[C@@H](Cc1ccccc1)C(=O)N[C@H](C)C(=O)N1Cc2ccccc2C[C@H]1C(=O)N[C@@H](CO)C(=O)O [YW-128, 2,6-dihydroxybenzoyl-(D-Tyr)-Phe-Leu-Pro-(D-Ser)-Gln-Phe-(D-Ala)-Tic-Ser-OH] (X8-[dY]FLP[dS]QF[dA][Tic]S-OH)	20
CC(C)C[C@@H](C(=O)N1CCC[C@H]1C(=O)N[C@H](CO)C(=O)N[C@@H](CCC(N)=O)C(=O)N[C@@H](Cc1ccccc1)C(=O)N[C@H](C)C(=O)N1Cc2ccccc2C[C@H]1C(=O)N[C@@H](CO)C(=O)O)N(C)C(=O)[C@H](Cc1ccccc1)NC(=O)[C@@H](Cc1ccc(O)cc1)NC(=O)CC1CCCCC1 [YW-194, (2-Cyclohexylacetyl)-(D-Tyr)-Phe-(NMe-Leu)-Pro-(D-Ser)-Gln-Phe-(D-Ala)-Tic-Ser] (Cyclohexylacetyl-[dY]F[NMeL]P[dS]QF[dA][Tic]S-OH)	1.2
CC(C)C[C@H](NC(=O)[C@H](Cc1ccccc1)NC(=O)[C@@H](Cc1ccc(O)cc1)NC(=O)NCCc1ccccc1)C(=O)N1CCC[C@H]1C(=O)N[C@H](CO)C(=O)N[C@@H](CCC(N)=O)C(=O)N[C@@H](Cc1ccccc1)C(=O)N[C@H](C)C(=O)N1Cc2ccccc2C[C@H]1C(=O)N[C@@H](CO)C(=O)O [YW-72, Phenethylcarbamoyl-(D-Tyr)-Phe-Leu-Pro-(D-Ser)-Gln-Phe-(D-Ala)-Tic-Ser-OH] ({NHPhenethyl-CO}-[dY]FLP[dS]QF[dA][Tic]S-OH)	45
CC(C)C[C@H](NC(=O)[C@H](Cc1ccccc1)NC(=O)[C@@H](Cc1ccc(O)cc1)NC(=O)CCCCc1ccccc1)C(=O)N1CCC[C@H]1C(=O)N[C@H](CO)C(=O)N[C@@H](CCC(N)=O)C(=O)N[C@@H](Cc1ccccc1)C(=O)N[C@H](C)C(=O)N1Cc2ccccc2C[C@H]1C(=O)N[C@@H](CO)C(=O)O [YW-76, 5-phenylvaleroyl-(D-Tyr)-Phe-Leu-Pro-(D-Ser)-Gln-Phe-(D-Ala)-Tic-Ser-OH] ({Pentanoyl(5-Ph)}-[dY]FLP[dS]QF[dA][Tic]S-OH)	43
